From patent US9581598B2, “Diagnosis and treatment of brain tumor” (Sanford-Burnham Medical Research Institute, priority 2012, dated 2017)
Entries after “also recorded” stand apart in the source; their conditions may differ. Where a SMILES comes first, the peptide text is derived from it. The star is where a group is joined. DTPA(central) = O=C(O)CN(CCN(CCN(CC(=O)O)CC(=O)O)CC(=O)*)CC(=O)O; FITC = O=C1OC2(c3ccc(O)cc3Oc3cc(O)ccc32)c2ccc(NC(=S)*)cc21

Columns and labels:
i.c. U87MG tumor = system: i.c. U87MG tumor; design: species or system mice; conditions: mouse, in vivo
Protocol: The DTPA conjugated peptides (20 μg per animal) were mixed with 0.2 M NaAc (pH 5) and 5 MBq of ^111Indiumchloride (^111InCl3, Mallinckrodt, Le Petten, Netherlands) per animal was added to the mixture. The total volume of the solution was calculated to be 100 μl/animal. The reaction mixture was incubated for an hour at RT and the radiochemical purity was measured by using an instant thin-layer chromatography (ITLC-SG, Pall Corporation, USA) on a 13×1.5 cm strip using 0.3 M NaCit (pH 5) as a mobile phase. The radiochemical purity of the peptides was 99-100%.
The imaging studies were performed two weeks post U87MG tumor implantation. For SPECT/CT (single photon emission computed tomography-computed tomography) imaging animals were anesthetized with 1-3% isoflurane in N2/O2 at a 70:30 ratio. The radiolabeled peptide (100 μl) was injected into the tail vein followed by SPECT imaging using a combined small animal SPECT/CT (Gamma Medica Inc., Northridge, Calif.) with dual gamma camera modality. Medium energy parallel hole collimators were used in all gamma imaging with a 171/245/[…] keV energy window for ^111In. Planar two-dimensional imaging for all animals was performed at earliest possible time point after injection with 60 s acquisition time/image up to 30 minutes. For 3D imaging total of 64 projections, (120 s/projection) were used. The matrix size was 80×80 in 125×125 mm^2 field of view (FOV). […]
After the last imaging session animals were sacrificed with CO2 and tissue samples were collected. Major organs and tissues (blood, heart, lungs, liver, spleen, left kidney, duodenum, ovaries, fat, muscle, skin, brain and brain tumor) were weighed, and the radioactivity in each organ or tissue sample was measured in an automated gamma counter (Clinigamma, Turku, Finland). The counts obtained were corrected for the background radiation and physical decay, and tissue radioactivity was expressed as percentage of the injected dose per gram of tissue (% ID/g)±SD.

[1] = system: HifKO murine astrocytoma cells; assay: targeted treatment of tumor bearing mice; assay type: in vivo; conditions: day 14
Protocol: Immunocompromised (Balb/c nu/nu) mice were implanted with HifKO murine astrocytoma cells (Blouw et al. 2003). Treatment with saline (PBS), free chlorambusil (Cbl) and targeted drug (chlorambusil conjugated to CooP peptide; CooP—CPP-Cbl, 5 mg/kg) was started at day 5 post-implantation and continued every second day until day 14.

i.c HIFko astrocytoma = assay: tissue localization of fluorescein-labeled peptide after i.v. injection; assay type: in vivo, mice
Protocol: (§1) Athymic female Balb/c nu-nu mice (4-6 wks) from Taconic Europe were used in all tumor experiments. Establishment of the intracranial tumors has been described (Blouw et al., 2003). In brief, 50 000 HIFko, VEGF+, U87MG, U87-GFP, U87-MDGI-GFP or BT4C tumor cells in phosphate buffered saline (PBS) or DMEM were injected through the skull using a Hamilton syringe (no 84855), 2 mm right from the bregma at the depth of 3 mm in the brain parenchyma. Mice were used for some experiments 10-15 days after tumor cell inoculation. In experiments studying the role of MDGI in tumor progression and invasiveness, mice were used 10-21 days after tumor cell inoculation. To establish subcutaneous tumors, 2-5×10^6 cells were grafted subcutaneously on the abdominal side of the mice (in some experiments) or into the mammary fat pad, in other experiments. All animal studies were conducted according to the guidelines of the Provincial Government of Southern Finland and the protocol was approved by the Experimental Animal Committee.
Intravenously injected fluorescein-labeled peptides ([…]) and antibodies (20 μg/animal) were allowed to circulate for one hour followed by perfusion through the heart with 10 ml of phosphate buffered saline (PBS) and 10 ml of 4% paraformaldehyde (PFA) in PBS. Tumors and organs were excised, PFA-fixed and soaked in 30% sucrose (w/v) overnight. Tissues were frozen in the OCT embedding medium (Tissue-Tek). Sections (5-10 μm) were cut for histological analyses. To detect the in vivo distribution of the fluorescein-labeled peptides, sections were stained with a rabbit anti-FITC antibody (Zymed Laboratories, San Francisco, USA). […] Sections were examined under an inverted fluorescence microscope (Axioplan).

[2] = system: rat BT4C glioma xenografts; assay: homing of fluorescein-labeled peptide after i.v. injection; assay type: in vivo, mice; conditions: intravenous injection
Protocol: as §1
(§2) Intravenously injected fluorescein-labeled peptides (100 μl of 1 mM solution) and antibodies (20 μg/animal) were allowed to circulate for one hour followed by perfusion through the heart with 10 ml of phosphate buffered saline (PBS) and 10 ml of 4% paraformaldehyde (PFA) in PBS. Tumors and organs were excised, PFA-fixed and soaked in 30% sucrose (w/v) overnight. Tissues were frozen in the OCT embedding medium (Tissue-Tek). Sections (5-10 μm) were cut for histological analyses. To detect the in vivo distribution of the fluorescein-labeled peptides, sections were stained with a rabbit anti-FITC antibody (Zymed Laboratories, San Francisco, USA). To visualize blood vessels, MDGI and tumor cells, sections were stained with the rat anti-mouse CD31 (BD Pharmingen), goat or rabbit anti-MDGI (Santa Cruz Biotechnology, USA), or a rabbit anti-SV40 large T antigen (a kind gift from Dr. Hanahan, ISREC, Switzerland) antibodies followed by the Alexa-594 and Alexa-488 conjugated secondary antibodies (Molecular Probes, Eugene, Oreg., USA). Nuclei were visualized with DAPI (Vector Laboratories, Burlingame). Sections were examined under an inverted fluorescence microscope (Axioplan).

[3] = system: intracranial U87MG human glioma xenografts; assay: as above; assay type: in vivo, mice; conditions: intravenous injection
Protocol: as §1, §2

[4] = system: tumors established from the HIFko cells implanted subcutaneously; assay: as above; assay type: in vivo, mice; conditions: subcutaneous HIFko tumors
Protocol: as §1, §2

[5] = system: astrocytomas overexpressing VEGF; assay: as above; assay type: in vivo, mice; conditions: angiogenic vessels
Protocol: as §1, §2

[6] = system: orthotopic MDA-MB-231 human breast cancer xenografts; assay: as above; assay type: in vivo, mice; conditions: intravenous injection; parental MDA-MB-231
Protocol: as §1, §2

[7] = system: MDGI-expressing MDA-MB-231 xenografts; assay: as above; assay type: in vivo, mice
Protocol: as §2
To obtain an MDA-MB-231 breast tumor cell line stably expressing the MDGI as a c-Myc fusion protein, cells were transfected with the pcDNA3-9E10-MDGI plasmid as described herein. […]

Q: Which results are given for `CC(C)C[C@H](NC(=O)CNC(=O)[C@H](CO)NC(=O)[C@H](CC(C)C)NC(=O)CNC(=O)[C@H](CS)NC(=O)[C@H](C)NC(=O)CN(CCN(CC(=O)O)CC(=O)O)CCN(CC(=O)O)CC(=O)O)C(=O)NCC(=O)N[C@H](C(=O)N[C@@H](C)C(N)=O)C(C)C` [^111In-CooP, metal not drawn] ({DTPA(central)}-ACGLSGLGVA-NH2)?
A: tumor half to healthy brain half ratio (i.c. U87MG tumor): up to 20:1; plasma clearance (i.c. U87MG tumor; iv, 20 ug): rapid

Q: With `CC(C)C[C@H](NC(=O)[C@H](C)NC(=O)[C@H](C)NC(=O)[C@@H](NC(=O)[C@H](CS)NC(=O)[C@H](C)NC(=O)CN(CCN(CC(=O)O)CC(=O)O)CCN(CC(=O)O)CC(=O)O)C(C)C)C(=O)N[C@@H](CC(N)=O)C(=O)N[C@@H](C)C(=O)N[C@@H](CC(=O)O)C(=O)NCC(N)=O` [^111In-labeled control peptide, NH2-ACVAALNADG-CONH2, metal not drawn, reference compound] as the molecule, how does the “accumulation in the tumor tissue” value (i.c. U87MG tumor) read?
A: The value was “No accumulation”.

Q: Which “condition of the animals at end of experiment” value [1] does the source give for `O=C(O)CCCc1ccc(N(CCCl)CCCl)cc1` [chlorambusil] here?
A: The value was “poor condition of the animals”.

Q: How did the “peptide localization in tumor” value (i.c HIFko astrocytoma; 100 μM, 100 μl/animal i.v., 60 minutes circulation) turn out when “FITC-CooP: synthetic CooP peptide conjugated to fluorescein (Ac-K(FITC)ACGLSGLGVA-NH2)” was run?
A: The value was “accumulated in the tumor islets in the brain”.

Q: And the “peptide-derived fluorescence in the kidneys and the choroid plexus” value (i.c HIFko astrocytoma; i.v.)?
A: The value was “Some peptide-derived fluorescence was observed”.

Q: And the “peptide in surrounding histologically normal brain or other tissues” value (i.c HIFko astrocytoma; i.v., 60 minutes circulation)?
A: Its value is “not detected”.

Q: “NH2-ACGLSGLGVA-CONH2 (H-ACGLSGLGVA-NH2) [CooP peptide, core …]” was tested. Which homing to tumor [2] did it give?
A: The homing to tumor was “to a lesser yet detectable extent”.

Q: And the homing to tumor [3]?
A: Its homing to tumor is “homed efficiently”.

Q: What about the homing to tumor [4] of the same molecule?
A: Its homing to tumor is “did not home”.

Q: What about the homing to tumor [5] of the same molecule?
A: Its homing to tumor is “did not home”.

Q: What about the “peptide detected in tumor” value [6] of the same molecule?
A: The value was “No CooP peptide was detected; also recorded: only negligible amount of the peptide was detected”.

Q: And the homing to tumor [7]?
A: The homing to tumor was “homed with high efficiency”.
